molecular target: TARP γ8 dependent AMPA receptor (GRIA1o-CACNG8 fusion construct) (Homo sapiens (Human), UniProt P42261+Q8WXS5); assay: Calcium flux assay (FLIPR), inhibition of glutamate response of GluA1o-γ8 channel; type: cell-based; settings: HEK293 cells stably expressing GRIA1o-CACNG8 fusion; calcium flux after 15 μM glutamate; negative log of the IC50 in molar
Source text: This assay was used to test compounds for their ability to inhibit TARP γ8 dependent AMPA receptor activity. The AMPA receptor is a non-selective cation channel activated by glutamate. […] But, this desensitization is incomplete, and a substantial steady-state current remains in the sustained presence of glutamate (Cho et al. (2007). “Two families of TARP isoforms that have distinct effects on the kinetic properties of AMPA receptors and synaptic currents.” Neuron 55(6): 890-904).
An in vitro assay was used to determine the potency of test compounds as inhibitors of the glutamate response of the channel formed by GluA10-γ8. To ensure a 1:1 stoichiometry of GluA1o and γ8 subunits in the expressed channel, a fusion of the cDNAs for GRIA1o and CACNG8 was used. Following Shi et al (2009) “The stoichiometry of AMPA receptors and TARPs varies by neuronal cell type.” Neuron 62(5): 633-640), the C-terminus of the cDNA for GRIA1o was fused to the N-terminus of the cDNA for γ8. The linker sequence was […]. Channels expressed with this construct appear to have similar properties to channels formed by co-expression of GRIA1o with an excess of CACNG8 (Shi et al. 2009). A clonal cell line in HEK293 cells stably expressing this construct, with a geneticin selection marker, was generated for use in this assay.
Cell expressing the GRIA1o-CACNG8 fusion construct were grown in a monolayer in 96- or 384-well microtiter plates. They were washed with assay buffer (135 mM NaCl, 4 mM KCl, 3 mM CaCl2, 1 mM MgCl2, 5 mM glucose, 10 mM HEPES, pH 7.4, 300 mOs) using a Biotek EL405 plate washer. The cells were then loaded with a calcium-sensitive dye (Calcium-5 or Calcium-6, Molecular Devices) and the test compounds at a range of concentrations. Calcium flux following the addition of 15 μM glutamate was monitored using a Molecular Devices FLIPR Tetra.
The fluorescence in each well was normalized to the fluorescence of negative and positive control wells. The negative control wells had no added compounds, and the positive control wells had been incubated with 10 μM CP465022 (a non-subtype-selective AMPA receptor antagonist) (Lazzaro et al. (2002). “Functional characterization of CP-465,022, a selective, noncompetitive AMPA receptor antagonist.” Neuropharmacology 42(2): 143-153). The responses to glutamate as functions of the test compound concentrations were fitted to a four-parameter logistic function. The fitted parameter corresponding to the midpoint was taken to be the potency of inhibition of the compound. The data in Table 4 below illustrates the observed potency for the compounds described herein. pIC50 refers to the negative log of the IC50 in molar.

TARP γ8 dependent AMPA receptor (GRIA1o-CACNG8 fusion construct), sequence (P42261 other isoform, or with tags, fused parts or gaps): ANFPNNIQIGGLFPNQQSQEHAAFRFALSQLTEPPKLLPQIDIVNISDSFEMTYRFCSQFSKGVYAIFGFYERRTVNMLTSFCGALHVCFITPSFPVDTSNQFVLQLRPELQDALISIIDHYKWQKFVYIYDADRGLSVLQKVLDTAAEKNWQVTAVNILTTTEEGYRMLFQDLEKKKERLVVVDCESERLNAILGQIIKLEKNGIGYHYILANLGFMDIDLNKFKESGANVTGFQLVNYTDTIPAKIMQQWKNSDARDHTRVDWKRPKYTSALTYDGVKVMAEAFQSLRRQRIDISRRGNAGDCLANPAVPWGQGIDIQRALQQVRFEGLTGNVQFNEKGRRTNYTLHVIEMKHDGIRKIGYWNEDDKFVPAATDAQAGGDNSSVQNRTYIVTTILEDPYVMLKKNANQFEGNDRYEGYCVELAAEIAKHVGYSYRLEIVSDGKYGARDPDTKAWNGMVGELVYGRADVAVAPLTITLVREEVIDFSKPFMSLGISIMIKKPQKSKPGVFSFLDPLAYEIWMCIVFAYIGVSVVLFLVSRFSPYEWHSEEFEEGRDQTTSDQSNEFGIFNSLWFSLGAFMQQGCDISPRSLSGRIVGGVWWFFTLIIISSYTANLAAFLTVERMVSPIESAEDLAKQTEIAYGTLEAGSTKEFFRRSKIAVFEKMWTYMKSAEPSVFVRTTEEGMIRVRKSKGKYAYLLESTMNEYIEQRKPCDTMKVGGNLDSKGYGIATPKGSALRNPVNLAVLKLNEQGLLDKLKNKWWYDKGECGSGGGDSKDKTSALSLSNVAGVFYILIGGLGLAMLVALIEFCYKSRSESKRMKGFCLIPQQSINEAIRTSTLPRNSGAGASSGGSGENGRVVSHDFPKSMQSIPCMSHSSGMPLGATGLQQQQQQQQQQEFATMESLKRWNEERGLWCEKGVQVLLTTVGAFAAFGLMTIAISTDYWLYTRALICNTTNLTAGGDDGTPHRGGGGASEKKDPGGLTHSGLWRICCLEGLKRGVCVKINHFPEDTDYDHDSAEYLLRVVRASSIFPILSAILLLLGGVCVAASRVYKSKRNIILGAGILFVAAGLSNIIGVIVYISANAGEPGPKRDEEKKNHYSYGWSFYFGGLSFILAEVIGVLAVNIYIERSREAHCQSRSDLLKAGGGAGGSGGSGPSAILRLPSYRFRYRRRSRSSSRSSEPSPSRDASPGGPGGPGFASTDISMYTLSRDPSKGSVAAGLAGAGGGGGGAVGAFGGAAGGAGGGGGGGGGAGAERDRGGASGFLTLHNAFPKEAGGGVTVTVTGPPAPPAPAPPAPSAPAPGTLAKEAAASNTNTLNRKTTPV

Which IC50 does the source give for FC(F)(F)c1nc2ccc(C(F)(F)F)c(-c3cc(Cl)c4[nH]ncc4c3)n2n1 [Example 1, 5-(7-Chloro-1H-indazol-5-yl)-2,6-bis(trifluoromethyl)-[1,2,4]triazolo[1,5-a]pyridine] here?
Its IC50 is 0.0794 nM.

How did the IC50 turn out when Cc1cc(-c2c(C(F)(F)F)ccc3nc(C(F)(F)F)nn23)cc2cn[nH]c12 [Example 2, 5-(7-Methyl-1H-indazol-5-yl)-2,6-bis(trifluoromethyl)-[1,2,4]triazolo[1,5-a]pyridine] was run?
Its IC50 is 0.2 nM.

Which IC50 does the source give for O=C1Cc2cc(-c3c(C(F)(F)F)ccc4nc(C(F)(F)F)nn34)cc(Cl)c2N1 [Example 3, 5-(2,6-Bis(trifluoromethyl)-[1,2,4]triazolo[1,5-a]pyridin-5-yl)-7-chloroindolin-2-one] here?
Its IC50 is 0.251 nM.

How did the IC50 turn out when Cc1cc(-c2c(C(F)(F)F)ccc3nc(C(F)(F)F)nn23)cc2c1NC(=O)C2 [Example 4, 5-(2,6-Bis(trifluoromethyl)-[1,2,4]triazolo[1,5-a]pyridin-5-yl)-7-methylindolin-2-one] was run?
The IC50 was 0.501 nM.

Which IC50 does the source give for FC(F)(F)c1nc2c(Cl)cc(C(F)(F)F)c(-c3cc(Cl)c4[nH]ncc4c3)n2n1 [Example 5, 8-Chloro-5-(7-chloro-1H-indazol-5-yl)-2,6-bis(trifluoromethyl)-[1,2,4]triazolo[1,5-a]pyridine] here?
The IC50 was 0.316 nM.

For Cc1cc(C(F)(F)F)c(-c2cc(Cl)c3[nH]ncc3c2)n2nc(C(F)(F)F)nc12 [Example 6, 5-(7-Chloro-1H-indazol-5-yl)-8-methyl-2,6-bis(trifluoromethyl)-[1,2,4]triazolo[1,5-a]pyridine], which IC50 is on record?
Its IC50 is 0.2 nM.

For FC(F)c1nc2ccc(C(F)(F)F)c(-c3cc(Cl)c4[nH]ncc4c3)n2n1 [Example 7, 5-(7-Chloro-1H-indazol-5-yl)-2-(difluoromethyl)-6-(trifluoromethyl)-[1,2,4]triazolo[1,5-a]pyridine], which IC50 is on record?
The IC50 was 0.0631 nM.

With Cc1cc(-c2c(C(F)(F)F)ccc3nc(C(F)F)nn23)cc2cn[nH]c12 [Example 8, 5-(7-Methyl-1H-indazol-5-yl)-2-(difluoromethyl)-6-(trifluoromethyl)-[1,2,4]triazolo[1,5-a]pyridine] as the compound, how does the IC50 read?
The IC50 was 0.398 nM.

For O=C1Cc2cc(-c3c(C(F)(F)F)ccc4nc(C(F)F)nn34)cc(Cl)c2N1 [Example 9, 7-Chloro-5-(2-(difluoromethyl)-6-(trifluoromethyl)-[1,2,4]triazolo[1,5-a]pyridin-5-yl)indolin-2-one], which IC50 is on record?
Its IC50 is 0.398 nM.

For Cc1cc(-c2c(C(F)(F)F)ccc3nc(C(F)F)nn23)cc2c1NC(=O)C2 [Example 10, 7-Methyl-5-(2-(difluoromethyl)-6-(trifluoromethyl)-[1,2,4]triazolo[1,5-a]pyridin-5-yl)indolin-2-one], which IC50 is on record?
Its IC50 is 0.794 nM.

How did the IC50 turn out when FC(F)c1nc2ccc(C(F)(F)F)c(-c3cc(C(F)(F)F)c4[nH]ncc4c3)n2n1 [Example 11, 2-(Difluoromethyl)-6-(trifluoromethyl)-5-(7-(trifluoromethyl)-1H-indazol-5-yl)-[1,2,4]triazolo[1,5-a]pyridine] was run?
Its IC50 is 0.158 nM.

COc1cc(-c2c(C(F)(F)F)ccc3nc(C(F)F)nn23)cc2c1NC(=O)C2 [Example 12, 5-(2-(Difluoromethyl)-6-(trifluoromethyl)-[1,2,4]triazolo[1,5-a]pyridin-5-yl)-7-methoxyindolin-2-one] was tested. Which IC50 did it give?
The IC50 was 5.01 nM.

COc1ccc2nc(C(F)F)nn2c1-c1cc(Cl)c2[nH]ncc2c1 [Example 13, 5-(7-Chloro-1H-indazol-5-yl)-2-(difluoromethyl)-6-methoxy-[1,2,4]triazolo[1,5-a]pyridine] was tested. Which IC50 did it give?
Its IC50 is 5.01 nM.

COc1ccc2nc(C(F)F)nn2c1-c1cc(C)c2[nH]ncc2c1 [Example 14, 2-(Difluoromethyl)-6-methoxy-5-(7-methyl-1H-indazol-5-yl)-[1,2,4]triazolo[1,5-a]pyridine] was tested. Which IC50 did it give?
Its IC50 is 5.01 nM.

How did the IC50 turn out when COc1ccc2nc(C(F)F)nn2c1-c1cc(C(F)(F)F)c2[nH]ncc2c1 [Example 15, 2-(Difluoromethyl)-6-methoxy-5-(7-(trifluoromethyl)-1H-indazol-5-yl)-[1,2,4]triazolo[1,5-a]pyridine] was run?
Its IC50 is 2 nM.

FC(F)c1ccc2nc(C(F)(F)F)nn2c1-c1cc(Cl)c2[nH]ncc2c1 [Example 16, 5-(7-Chloro-1H-indazol-5-yl)-6-(difluoromethyl)-2-(trifluoromethyl)-[1,2,4]triazolo[1,5-a]pyridine] was tested. Which IC50 did it give?
Its IC50 is 0.1 nM.

For Cc1cc(-c2c(C(F)F)ccc3nc(C(F)(F)F)nn23)cc2cn[nH]c12 [Example 17, 6-(Difluoromethyl)-5-(7-methyl-1H-indazol-5-yl)-2-(trifluoromethyl)-[1,2,4]triazolo[1,5-a]pyridine], which IC50 is on record?
The IC50 was 0.158 nM.

How did the IC50 turn out when O=C1Cc2cc(-c3c(C(F)F)ccc4nc(C(F)(F)F)nn34)cc(Cl)c2N1 [Example 18, 7-Chloro-5-(6-(difluoromethyl)-2-(trifluoromethyl)-[1,2,4]triazolo[1,5-a]pyridin-5-yl)indolin-2-one] was run?
Its IC50 is 0.251 nM.

With Cc1cc(-c2c(C(F)F)ccc3nc(C(F)(F)F)nn23)cc2c1NC(=O)C2 [Example 19, 5-[6-(Difluoromethyl)-2-(trifluoromethyl)-[1,2,4]triazolo[1,5-a]pyridin-5-yl]-7-methyl-indolin-2-one] as the compound, how does the IC50 read?
The IC50 was 0.631 nM.

How did the IC50 turn out when COc1cc(-c2c(C(F)F)ccc3nc(C(F)(F)F)nn23)cc2c1NC(=O)C2 [Example 20, 5-[6-(Difluoromethyl)-2-(trifluoromethyl)-[1,2,4]triazolo[1,5-a]pyridin-5-yl]-7-methoxy-indolin-2-one] was run?
Its IC50 is 2.51 nM.

For Cc1nc2ccc(C(F)(F)F)c(-c3cc(Cl)c4[nH]ncc4c3)n2n1 [Example 21, 5-(7-Chloro-1H-indazol-5-yl)-2-methyl-6-(trifluoromethyl)-[1,2,4]triazolo[1,5-a]pyridine], which IC50 is on record?
Its IC50 is 0.631 nM.

Which IC50 does the source give for Cc1nc2ccc(C(F)(F)F)c(-c3cc(C)c4[nH]ncc4c3)n2n1 [Example 22, 2-Methyl-5-(7-methyl-1H-indazol-5-yl)-6-(trifluoromethyl)-[1,2,4]triazolo[1,5-a]pyridine] here?
Its IC50 is 12.6 nM.

How did the IC50 turn out when Cc1nc2ccc(C(F)(F)F)c(-c3cc(Cl)c4c(c3)CC(=O)N4)n2n1 [Example 23, 7-Chloro-5-(2-methyl-6-(trifluoromethyl)-[1,2,4]triazolo[1,5-a]pyridin-5-yl)indolin-2-one] was run?
The IC50 was 10 nM.

Cc1nc2ccc(C(F)(F)F)c(-c3cc(C)c4c(c3)CC(=O)N4)n2n1 [Example 24, 7-Methyl-5-(2-methyl-6-(trifluoromethyl)-[1,2,4]triazolo[1,5-a]pyridin-5-yl)indolin-2-one] was tested. Which IC50 did it give?
The IC50 was 20 nM.

For CCc1nc2ccc(C(F)(F)F)c(-c3cc(Cl)c4[nH]ncc4c3)n2n1 [Example 25, 5-(7-Chloro-1H-indazol-5-yl)-2-ethyl-6-(trifluoromethyl)-[1,2,4]triazolo[1,5-a]pyridine], which IC50 is on record?
The IC50 was 0.398 nM.

CCc1nc2ccc(C(F)(F)F)c(-c3cc(C)c4[nH]ncc4c3)n2n1 [Example 26, 2-Ethyl-5-(7-methyl-1H-indazol-5-yl)-6-(trifluoromethyl)-[1,2,4]triazolo[1,5-a]pyridine] was tested. Which IC50 did it give?
Its IC50 is 1 nM.

With CCc1nc2ccc(C(F)(F)F)c(-c3cc(Cl)c4c(c3)CC(=O)N4)n2n1 [Example 27, 7-Chloro-5-(2-ethyl-6-(trifluoromethyl)-[1,2,4]triazolo[1,5-a]pyridin-5-yl)indolin-2-one] as the compound, how does the IC50 read?
The IC50 was 1.26 nM.

CCc1nc2ccc(C(F)(F)F)c(-c3cc(C)c4c(c3)CC(=O)N4)n2n1 [Example 28, 5-(2-Ethyl-6-(trifluoromethyl)-[1,2,4]triazolo[1,5-a]pyridin-5-yl)-7-methylindolin-2-one] was tested. Which IC50 did it give?
The IC50 was 3.98 nM.

CCc1nc2c(Cl)cc(C(F)(F)F)c(-c3cc(Cl)c4[nH]ncc4c3)n2n1 [Example 29, 8-Chloro-5-(7-chloro-1H-indazol-5-yl)-2-ethyl-6-(trifluoromethyl)-[1,2,4]triazolo[1,5-a]pyridine] was tested. Which IC50 did it give?
The IC50 was 0.398 nM.

How did the IC50 turn out when CCc1nc2c(Cl)cc(C(F)(F)F)c(-c3cc(C)c4[nH]ncc4c3)n2n1 [Example 30, 8-Chloro-2-ethyl-5-(7-methyl-1H-indazol-5-yl)-6-(trifluoromethyl)-[1,2,4]triazolo[1,5-a]pyridine] was run?
The IC50 was 3.98 nM.

For CCc1nc2c(F)cc(C(F)(F)F)c(-c3cc(Cl)c4[nH]ncc4c3)n2n1 [Example 31, 5-(7-Chloro-1H-indazol-5-yl)-2-ethyl-8-fluoro-6-(trifluoromethyl)-[1,2,4]triazolo[1,5-a]pyridine], which IC50 is on record?
The IC50 was 1.26 nM.

— patent US10087185B2 (Janssen Pharmaceutica NV, priority 2016, dated 2018)
